Patent US20230000848A1, “METHODS OF TREATING NASH” (Gilead Sciences, Inc., priority 2021, published 2023)

Experiments:
[1] = test system: liver cytokine levels; test: Liver cytokine levels by ELISA from liver lysates, GAN mouse model; assay type: in vivo, mice
Method: (§1) The effect of COT inhibitor Compound A, ACC inhibitor Compound B, Cenicriviroc (CVC), and the combination of Compound A and Compound B in the Gubra amylin NASH mouse model (GAN) was determined.

[2] = test system: Choline Deficient High Fat Diet (CDHFD) model of fatty liver; test: Liver hydroxyproline (OH-P) content, rat CDHFD model; assay type: in vivo, Male Wistar Han Rats; conditions: 100 mg/Kg PO BID (treatment group 4), 42 days, vs vehicle group 2
Method: (§2) Compound A and Compound B were studied in a Choline Deficient High Fat Diet (CDHFD) model as described below. Rats enrolled in this study were first fed a choline deficient high fat diet (CDHFD) for 42 days prior to test article administration Animals were then split into treatment groups 1-8 and test article was administered as detailed in Table 1 for 42 days.
Liver tissue obtained at the end of the study was subjected to picrosirius red staining (PSR) was assessed according to standard techniques. Liver hydroxyproline content was measured from cryopowdered liver tissue. Chloramine-T was used to oxidize the free hydroxyproline for the production of a pyrrole. Addition of Ehrlich's reagent results in the formation of a chromophore that can be measured at 550 nm on a spectramax plate reader.
FIG. 3 plots liver hydroxyproline (OH—P) content from liver tissue for control (treatment group 1), start and end for the vehicle (treatment group 2), COT inhibitor (Compound A referred to as TPL2i, low dose=100 mg/Kg QD, high dose=100 mg/Kg BID), ACC inhibitor (Compound B referred to as ACCi, 10 mg/kg QD), and coadministration of Compound B with Compound A (treatment group 5 (TPL2i low dose+ACCi) and treatment group 6 (TPL2i high dose+ACCi)). Liver hydroxyproline (OH—P) content was calculated from liver tissue samples. […]

[3] = test system: Gubra amylin NASH (GAN) mouse model; test: Alpha-smooth muscle actin (aSMA) IHC on liver tissue, GAN mouse model; assay type: in vivo, mice; conditions: treatment group 3 (60 mg/kg BID) vs vehicle group 2, % area IHC
Method: as §1
FIG. 9 plots the […] (aSMA) levels from liver tissue of treatment group 1 (wt), vehicle (treatment group 2), COT inhibitor (Compound A, treatment group 3), ACC inhibitor (Compound B, treatment group 5), and combination of Compound A and Compound B (treatment group 4) in the Gubra amylin NASH (GAN) mouse model. Cenicriviroc (CVC) used as a control (treatment group 6). Alpha-smooth muscle actin (aSMA) levels were calculated from % area of alpha-SMA antibody staining on liver tissue (IHC).

[4] = Body weight, Gubra amylin NASH (GAN) mouse model; assay type: in vivo, mice; conditions: 60 mg/kg PO BID, after 84 days of dosing
Method: as §1
FIG. 5 plots the body weight of treatment group 1 (wt), vehicle (treatment group 2), COT inhibitor (Compound A, 60 mg/kg BID), ACC inhibitor (Compound B, 10 mg/Kg QD), and combination of Compound A and Compound B (treatment group 4) in the Gubra amylin NASH (GAN) mouse model. Cenicriviroc (CVC) used as a control (100 mg/Kg QD).

[5] = test system: Gubra amylin NASH (GAN) mouse model; test: NAFLD activity score from H&E stained liver sections, GAN mouse model; assay type: in vivo, mice; conditions: 60 mg/kg BID
Method: The effect of COT inhibitor Compound A, ACC inhibitor Compound B, Cenicriviroc (CVC), and the combination of Compound A and Compound B in the Gubra amylin NASH mouse model (GAN) was determined. [table] FIG. 10 plots NAFLD activity score of Compound A (60 mg/kg BID), Compound B (10 mg/Kg QD), CVC (100 mg/Kg QD), and the combination Compound A and Compound B in from liver tissue the Gubra amylin NASH mouse model. CVC=Cenicriviroc, used as a control (100 mg/Kg QD). Individual components comprising the NAFLD score includes hepatocellular ballooning (FIG. 11A), lobular inflammation (FIG. 11B), and steatosis score (FIG. 11C). NAFLD activity score was determined by scoring of steatosis, inflammation, and hepatocyte ballooning from hematoxylin and eosin stained liver sections.

[6] = test system: Gubra amylin NASH (GAN) mouse model; test: Liver total cholesterol, GAN mouse model; assay type: in vivo, mice; conditions: treatment group 3 (60 mg/kg BID)
Method: as §1
FIG. 12 plots the liver total cholesterol levels for treatment group 1 (wt), vehicle (treatment group 2), COT inhibitor (Compound A, treatment group 3), ACC inhibitor (Compound B, treatment group 5), and combination of Compound A and Compound B (treatment group 4) in the Gubra amylin NASH (GAN) mouse model. Cenicriviroc (CVC) used as a control (treatment group 6). Total cholesterol levels were calculated from was measured using commercial kits (Roche Diagnostics) on the cobas c 501 autoanalyzer according to the manufacturer's instructions.

[7] = test system: Gubra amylin NASH (GAN) mouse model; test: Picrosirius red staining (PSR) of liver tissue, GAN mouse model; assay type: in vivo, mice
Method: as §1
(§3) FIG. 8 plots liver fibrosis levels based on percent PSR for treatment group 1 (wt), vehicle (treatment group 2), COT inhibitor (Compound A, treatment group 3), ACC inhibitor (Compound B, treatment group 5), and combination of Compound A and Compound B (treatment group 4) in the Gubra amylin NASH (GAN) mouse model. Cenicriviroc (CVC) used as a control (treatment group 6).

[8] = Whole body fat mass by ECHO MRI, GAN mouse model; assay type: in vivo, mice; conditions: 60 mg/kg PO BID, after 84 days of dosing
Method: as §1
as §3, with “6” for “8”, “the” for “liver fibrosis levels based on”, “fat mass of” for “PSR for”, “6). Fat mass was calculated by ECHO MRI.” for “6).”

[9] = test system: Choline Deficient High Fat Diet (CDHFD) model of fatty liver; test: Picrosirius red staining (PSR) of liver tissue, rat choline deficient high fat diet (CDHFD) model; assay type: in vivo, Male Wistar Han Rats; conditions: for fibrosis as measured by PSR, decrease relative to vehicle: vs vehicle group 2
Method: Compound A and Compound B were studied in a Choline Deficient High Fat Diet (CDHFD) model as described below. Rats enrolled in this study were first fed a choline deficient high fat diet (CDHFD) for 42 days prior to test article administration Animals were then split into treatment groups 1-8 and test article was administered as detailed in Table 1 for 42 days. [table] Liver tissue obtained at the end of the study was subjected to picrosirius red staining (PSR) was assessed according to standard techniques. Liver hydroxyproline content was measured from cryopowdered liver tissue. Chloramine-T was used to oxidize the free hydroxyproline for the production of a pyrrole. Addition of Ehrlich's reagent results in the formation of a chromophore that can be measured at 550 nm on a spectramax plate reader. FIG. 2 plots the PSR (% area) for control (treatment group 1), start and end for the vehicle (treatment group 2), COT inhibitor (Compound A referred to as TPL2i, 100 mg/Kg QD (low dose), 100 mg/Kg BID (high dose)), ACC inhibitor (Compound B referred to as ACCi, 10 mg/kg QD), and coadministration of Compound B with Compound A (treatment groups 5 and 6). Data in FIG. 2 is based on all animals in the treatment group. In FIG. 2, a higher value for PSR % area is reflective of a higher level of fibrosis.

[10] = test system: liver cytokine levels; test: Liver cytokine levels by ELISA from liver lysates, rat CDHFD model; assay type: in vivo, Male Wistar Han Rats; conditions: TPL2i = group 4, TPL2i+ACCi = group 6, vs vehicle
Method: as §2

CCCCOCCOc1ccc(-c2ccc3c(c2)/C=C(/C(=O)Nc2ccc([S@@+]([O-])Cc4cncn4CCC)cc2)CCCN3CC(C)C)cc1 [CVC, Cenicriviroc, reference compound]
liver cytokine levels ([1]; treatment group 6 (100 mg/Kg)): Changes in cytokine levels were not observed

Cc1nc(F)ccc1[C@H](Nc1cc(Cl)c2ncc(C#N)c(NCC(C)(C)C)c2c1)c1cn(C2(C(F)F)CC2)nn1 [Compound A]
reduction in liver hydroxyproline compared to vehicle [2]: 38%
Alpha-smooth muscle actin (aSMA) levels, reduction compared to vehicle [3]: 41%
body weight decrease [4]: 16%
NAFLD activity score at the end of the study compared to vehicle [5]: more animals had a lower NAFLD activity score
Liver total cholesterol reduction [6]: 40%
fibrosis measured by PSR, decrease compared to vehicle ([7]; 60 mg/kg PO BID (treatment group 3) vs vehicle group 2): 46%
PSR relative to Compound B alone ([7]; BID treatment): reduced PSR
liver IL-1β level ([1]; treatment group 3 vs vehicle): statistically significant decreases
liver KC/GRO level ([1]; treatment group 3 vs vehicle): statistically significant decreases
liver MCP-1 level ([1]; treatment group 3 vs vehicle): statistically significant decreases
liver TNF-α level ([1]; treatment group 3 vs vehicle): statistically significant decreases
fat mass decrease [8]: 31%
fibrosis as measured by PSR, decrease relative to vehicle ([9]; 100 mg/Kg PO BID (treatment group 4, TPL2i high dose), 42 days): 55%
fibrosis as measured by PSR, decrease relative to vehicle ([9]; 100 mg/Kg PO QD (treatment group 3, TPL2i low dose), 42 days): 41%
liver fibrosis in PSR stained liver tissue (FIG. 1) compared to vehicle ([9]; treatment group 4 (100 mg/Kg BID) vs vehicle group 2): less liver fibrosis
liver IL-1b level [10]: statistically significant decreases
liver IL-10 level [10]: statistically significant decreases
liver IL-18 level [10]: statistically significant decreases
liver MIP1-α level [10]: statistically significant decreases

COc1ccccc1[C@H](Cn1c(=O)n(C(C)(C)C(=O)O)c(=O)c2c(C)c(-c3ncco3)sc21)O[C@H]1CC[C@@H](O)CC1 [Compound B]
PSR reduction ([9]; 10 mg/kg PO QD (treatment group 7), 42 days): 33%
